Values joined by “and” are separate entries in the source; they are usually repeats but may differ in a detail not shown here. Identical values can stand only once.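 1) Cells in 96-well plates. 2) Compound, 48 h, 5 concentrations. 3) Linear interpolation between surrounding doses. 4) Unreached endpoint = highest concentration. GI50: concentration for 50% inhibition of growth.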 Active and inactive are the calls of the source. Rule as the data show it: active = GI50 up to about 1.1 µM and inactive = higher.
Columns and labels:
Assay in all cases: inhibition of tumour cell growth, NCI panel, 48 h
786-0 = tested on: 786-0
A498 = tested on: A498
A549 = tested on: A549
ACHN = tested on: ACHN
CAKI-1 = tested on: CAKI-1
CCRF-CEM = tested on: CCRF-CEM
COLO 205 = tested on: COLO 205
DU-145 = tested on: DU-145
EKVX = tested on: EKVX
HCC 2998 = tested on: HCC 2998
HCT-116 = tested on: HCT-116
HCT-15 = tested on: HCT-15
HL-60 = tested on: HL-60
HOP-62 = tested on: HOP-62
HOP-92 = tested on: HOP-92
HT-29 = tested on: HT-29
IGROV-1 = tested on: IGROV-1
K562 = tested on: K562
KM12 = tested on: KM12
LOX IMVI = tested on: LOX IMVI
M14 = tested on: M14
MCF7 = tested on: MCF7
MDA-MB-231 = tested on: MDA-MB-231
MDA-MB-435 = tested on: MDA-MB-435
MDA-N = tested on: MDA-N
MOLT-4 = tested on: MOLT-4
Malme-3M = tested on: Malme-3M
NCI-H226 = tested on: NCI-H226
NCI-H23 = tested on: NCI-H23
NCI-H522 = tested on: NCI-H522
NCI/ADR-RES = tested on: NCI/ADR-RES
OVCAR-3 = tested on: OVCAR-3
OVCAR-4 = tested on: OVCAR-4
OVCAR-5 = tested on: OVCAR-5
OVCAR-8 = tested on: OVCAR-8
PC-3 = tested on: PC-3
RPMI-8226 = tested on: RPMI-8226
RXF 393 = tested on: RXF 393
SF-295 = tested on: SF-295
SF-539 = tested on: SF-539
SK-MEL-28 = tested on: SK-MEL-28
SK-MEL-2 = tested on: SK-MEL-2
SK-MEL-5 = tested on: SK-MEL-5
SK-OV-3 = tested on: SK-OV-3
SN12C = tested on: SN12C
SNB-19 = tested on: SNB-19
SNB-75 = tested on: SNB-75
SW-620 = tested on: SW-620
T47D = tested on: T47D
TK-10 = tested on: TK-10
U-251 = tested on: U-251
UACC-257 = tested on: UACC-257
UACC-62 = tested on: UACC-62
UO-31 = tested on: UO-31
Hs-578T = tested on: Hs-578T
SF-268 = tested on: SF-268
NCI-H460 = tested on: NCI-H460
SR = tested on: SR

In the case of `Nc1ccccc1C(=O)NNC(=O)c1ccccc1N`, the GI50 (786-0) is reported as > 100 µM (inactive), the GI50 (A498) is reported as > 100 µM (inactive) and the GI50 (A549) is reported as > 100 µM (inactive). The GI50 (ACHN) was > 100 µM (inactive), the GI50 (CAKI-1) was > 100 µM (inactive) and the GI50 (CCRF-CEM) was > 100 µM (inactive). For the same molecule, the GI50 (COLO 205) was > 100 µM (inactive), the GI50 (DU-145) was > 100 µM (inactive) and the GI50 (EKVX) was > 100 µM (inactive). The GI50 (HCC 2998) was > 100 µM (inactive), the GI50 (HCT-116) was > 100 µM (inactive) and the GI50 (HCT-15) was greater than 100 µM. For the same molecule, the GI50 (HL-60) was > 100 µM (inactive), the GI50 (HOP-62) was > 100 µM (inactive) and the GI50 (HOP-92) was > 100 µM (inactive). For the same molecule, the GI50 (HT-29) was > 100 µM (inactive), the GI50 (IGROV-1) was > 100 µM (inactive) and the GI50 (K562) was > 100 µM (inactive). The GI50 (KM12) was > 100 µM (inactive), the GI50 (LOX IMVI) was > 100 µM (inactive) and the GI50 (M14) was > 100 µM (inactive). The GI50 (MCF7) was > 100 µM (inactive), the GI50 (MDA-MB-231) was > 100 µM (inactive) and the GI50 (MDA-MB-435) was > 100 µM (inactive). The GI50 (MDA-N) was > 100 µM (inactive), the GI50 (MOLT-4) was > 100 µM (inactive) and the GI50 (Malme-3M) was > 100 µM (inactive). The GI50 (NCI-H226) was > 100 µM (inactive), the GI50 (NCI-H23) was > 100 µM (inactive) and the GI50 (NCI-H522) was > 100 µM (inactive). For the same molecule, the GI50 (NCI/ADR-RES) was > 100 µM (inactive), the GI50 (OVCAR-3) was > 100 µM (inactive) and the GI50 (OVCAR-4) was > 100 µM (inactive). The GI50 (OVCAR-5) was > 100 µM (inactive), the GI50 (OVCAR-8) was > 100 µM (inactive) and the GI50 (PC-3) was > 100 µM (inactive). The GI50 (RPMI-8226) was > 100 µM (inactive), the GI50 (RXF 393) was > 100 µM (inactive) and the GI50 (SF-295) was > 100 µM (inactive). For the same molecule, the GI50 (SF-539) was > 100 µM (inactive), the GI50 (SK-MEL-28) was > 100 µM (inactive) and the GI50 (SK-MEL-2) was > 100 µM (inactive). The GI50 (SK-MEL-5) was > 100 µM (inactive), the GI50 (SK-OV-3) was > 100 µM (inactive) and the GI50 (SN12C) was > 100 µM (inactive). For the same molecule, the GI50 (SNB-19) was > 100 µM (inactive), the GI50 (SNB-75) was 35.5 µM (inactive) and the GI50 (SW-620) was > 100 µM (inactive). The GI50 (T47D) was > 100 µM (inactive), the GI50 (TK-10) was > 100 µM (inactive) and the GI50 (U-251) was > 100 µM (inactive). For the same molecule, the GI50 (UACC-257) was > 100 µM (inactive), the GI50 (UACC-62) was > 100 µM (inactive) and the GI50 (UO-31) was > 100 µM (inactive).
With `O=C1N/C(=N/N=C\C(O)C(O)C(O)CO)N/C1=C/c1ccccc1` (configuration not stated) the GI50 (786-0) was 64 µM (inactive), the GI50 (A549) was > 100 µM (inactive) and the GI50 (ACHN) was > 100 µM (inactive). For the same molecule, the GI50 (CAKI-1) was > 100 µM (inactive), the GI50 (COLO 205) was > 100 µM (inactive) and the GI50 (DU-145) was > 100 µM (inactive). The GI50 (EKVX) was > 100 µM (inactive) and 85.7 µM (inactive), the GI50 (HCC 2998) was 51.6 µM (inactive) and the GI50 (HOP-62) was > 100 µM (inactive). For the same molecule, the GI50 (HT-29) was 50.1 µM (inactive), the GI50 (Hs-578T) was > 100 µM (inactive) and the GI50 (LOX IMVI) was > 100 µM (inactive). For the same molecule, the GI50 (MCF7) was 34.4 µM (inactive) and 32.6 µM (inactive), the GI50 (MDA-MB-231) was 60 µM (inactive) and the GI50 (MDA-N) was 53 µM (inactive). For the same molecule, the GI50 (MOLT-4) was 24 µM (inactive) and 39.6 µM (inactive), the GI50 (Malme-3M) was 82 µM (inactive) and the GI50 (NCI-H226) was > 100 µM (inactive). The GI50 (NCI-H23) was > 100 µM (inactive), the GI50 (NCI/ADR-RES) was > 100 µM (inactive) and the GI50 (OVCAR-5) was > 100 µM (inactive). The GI50 (OVCAR-8) was 65 µM (inactive), the GI50 (RXF 393) was > 100 µM (inactive) and the GI50 (SF-268) was > 100 µM (inactive) and 62.7 µM (inactive). For the same molecule, the GI50 (SK-MEL-2) was > 100 µM (inactive), the GI50 (SK-OV-3) was > 100 µM (inactive) and the GI50 (SNB-19) was > 100 µM (inactive). The GI50 (SNB-75) was > 100 µM (inactive), the GI50 (TK-10) was > 100 µM (inactive) and the GI50 (U-251) was > 100 µM (inactive) and 52.5 µM (inactive). The GI50 (UACC-257) was > 100 µM (inactive) and the GI50 (UO-31) was > 100 µM (inactive).
With `COc1ccc2cc(C(=O)NCCc3ccccc3)ccc2c1OC` the GI50 (786-0) was 39.4 µM (inactive), the GI50 (A498) was 37.5 µM (inactive) and the GI50 (A549) was > 100 µM (inactive). For the same molecule, the GI50 (ACHN) was > 100 µM (inactive), the GI50 (CAKI-1) was > 100 µM (inactive) and the GI50 (COLO 205) was > 100 µM (inactive). For the same molecule, the GI50 (DU-145) was > 100 µM (inactive), the GI50 (EKVX) was > 100 µM (inactive) and the GI50 (HCC 2998) was 34.8 µM (inactive). For the same molecule, the GI50 (HCT-116) was 96.6 µM (inactive), the GI50 (HCT-15) was greater than 100 µM and the GI50 (HOP-62) was 32.1 µM (inactive). The GI50 (HOP-92) was 49.1 µM (inactive), the GI50 (HT-29) was 67.6 µM (inactive) and the GI50 (Hs-578T) was 56.4 µM (inactive). The GI50 (IGROV-1) was > 100 µM (inactive), the GI50 (K562) was 83.6 µM (inactive) and the GI50 (LOX IMVI) was > 100 µM (inactive). For the same molecule, the GI50 (M14) was > 100 µM (inactive), the GI50 (MCF7) was > 100 µM (inactive) and the GI50 (MDA-MB-231) was 33.6 µM (inactive). For the same molecule, the GI50 (MDA-MB-435) was > 100 µM (inactive), the GI50 (MDA-N) was > 100 µM (inactive) and the GI50 (MOLT-4) was > 100 µM (inactive). The GI50 (Malme-3M) was > 100 µM (inactive), the GI50 (NCI-H226) was 63 µM (inactive) and the GI50 (NCI-H23) was > 100 µM (inactive). The GI50 (NCI-H460) was > 100 µM (inactive), the GI50 (NCI/ADR-RES) was 84.3 µM (inactive) and the GI50 (OVCAR-3) was 46.1 µM (inactive). For the same molecule, the GI50 (OVCAR-4) was > 100 µM (inactive), the GI50 (OVCAR-5) was > 100 µM (inactive) and the GI50 (OVCAR-8) was 79.6 µM (inactive). For the same molecule, the GI50 (PC-3) was 91.2 µM (inactive), the GI50 (RPMI-8226) was > 100 µM (inactive) and the GI50 (RXF 393) was 30.5 µM (inactive). For the same molecule, the GI50 (SF-268) was 54.3 µM (inactive), the GI50 (SF-295) was 69.2 µM (inactive) and the GI50 (SF-539) was 32.2 µM (inactive). The GI50 (SK-MEL-28) was > 100 µM (inactive), the GI50 (SK-MEL-2) was 71.9 µM (inactive) and the GI50 (SK-MEL-5) was 97.3 µM (inactive). The GI50 (SK-OV-3) was 65.3 µM (inactive), the GI50 (SN12C) was > 100 µM (inactive) and the GI50 (SNB-19) was 68.1 µM (inactive). For the same molecule, the GI50 (SR) was 49.9 µM (inactive), the GI50 (SW-620) was > 100 µM (inactive) and the GI50 (T47D) was 26.5 µM (inactive). For the same molecule, the GI50 (U-251) was 33 µM (inactive), the GI50 (UACC-257) was > 100 µM (inactive) and the GI50 (UACC-62) was > 100 µM (inactive).
